Measured values published in US9487489B2, “Halogen-substituted pyrazole derivatives as pest-control agents” (BAYER CROPSCIENCE AKTIENGESELLSCHAFT, priority 2013, dated 2016).
“And” between values parts separate entries of the source, which are not always exact repeats. Equal entries are not always repeated.

What was measured:
[1] = test system: Tick nymphs (Amblyomma hebraeum); test: Amblyomma hebraeum test (AMBYHE), tick nymphs immersed; format: in vivo; details: application rate 100 ppm; immersed one minute; after 42 days
Method: A. Amblyomma hebaraeum Test (AMBYHE)
(§1) Solvent: dimethyl sulphoxide
To produce a suitable preparation of active compound, 10 mg of active compound are mixed with 0.5 ml of dimethyl sulfoxide, and the concentrate is diluted with water to the desired concentration.
Tick nymphs (Amblyomma hebraeum) are placed into perforated plastic beakers and immersed in the desired concentration for one minute. The ticks are transferred on filter paper into a Petri dish and stored in a climate-controlled cabinet.
After 42 days, the kill in % is determined. 100% means that all of the ticks have been killed; 0% means that none of the ticks have been killed.

[2] = test system: L1 larvae of the Australian sheep blowfly (Lucilia cuprina); test: Lucilia cuprina test (LUCICU); format: in vivo; details: application rate 100 ppm; after 2 days
In short: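 Percent mortality read at 2 days; 100% = all larvae killed, 0% = none. Test compound, predissolved in DMSO and water-diluted to the wanted level, was mixed into minced horsemeat holding roughly 20 first-instar larvae.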

[3] = test system: adult houseflies (Musca domestica); test: Musca domestica test (MUSCDO); format: in vivo; details: application rate 100 ppm; after 2 days
In short: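 Groups of 10 adult Musca domestica exposed to a sugar-soaked sponge treated with the water-diluted DMSO preparation of compound at the chosen concentration. Percent kill read at day 2, where 0% means no flies killed and 100% all killed.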

[4] = test system: caterpillars of the armyworm (Spodoptera frugiperda); test: Spodoptera frugiperda spray test (SPODFR); format: in vivo; details: maize leaf discs, after 7 days
In short: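 Percent kill read at day 7 on caterpillar-infested maize leaf discs. Discs were first sprayed with aqueous emulsifier-containing (1000 ppm) preparations made from acetone/dimethylformamide solutions, and dried. Scale: 0% none dead, 100% all dead.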

[5] = test system: adult cat fleas (Ctenocephalides felis); test: Ctenocephalides felis in vitro contact test with adult cat fleas (T1); details: after 48 h
In short: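 Adult cat fleas (Ctenocephalides felis), 5-10 per tube, were exposed to the inner surface of 25 ml test tubes coated with compound in acetone. Tubes were incubated lying flat under ambient conditions. Efficacy was then read by standing tubes upright and knocking the fleas to the floor. Fleas that stayed motionless or moved uncoordinatedly counted as dead or moribund, where 100% means all fleas dead or moribund and 0% means none harmed.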

[6] = test system: adult dog ticks (Rhipicephalus sanguineus); test: Rhipicephalus sanguineus in vitro contact test with adult brown dog ticks (T2); details: after 48 h
In short: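 Acetone solutions coated onto test tube walls and floor, giving 5 μg/cm^2 at 900 ppm. Five to ten adult ticks held per tube in the dark at room temperature for 48 h, then heated at 45-50° C for up to 5 min; efficacy is the percentage of dead or moribund ticks unable to climb away.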

[7] = test system: bont tick nymphs (Amblyomma hebraeum); details: after 48 h
[8] = test system: southern root-knot nematode (Meloidogyne incognita); test: Meloidogyne incognita test (MELGIN); format: in vivo; details: application rate 20 ppm; lettuce; after 14 days
Method: K. Meloidogyne incognita Test (MELGIN)
Solvent: 125.0 parts by weight of acetone
To prepare a suitable active compound preparation, 1 part by weight of active compound is mixed with the stated amount of solvent and the concentrate is diluted with water to the desired concentration.
Vessels are filled with sand, active compound solution, an egg/larvae suspension of the southern root-knot nematode (Meloidogyne incognita) and lettuce seeds. The lettuce seeds germinate and the plants develop. On the roots, galls are formed.
After 14 days, the nematicidal efficacy in % is determined by the formation of galls. 100% means that no galls have been found; 0% means that the number of galls on the treated plants corresponds to the untreated control.

[9] = test system: larvae of the red stomach worm (Haemonchus contortus); test: Haemonchus contortus test (HAEMCO); format: in vivo; details: application rate 20 ppm; after 5 days
Method: T8. Haemonchus contortus-test (HAEMCO)
as §1
To produce a suitable preparation of active compound, 10 mg of active compound are mixed with 0.5 ml of dimethyl sulphoxide, and the concentrate is diluted with “Ringer solution” to the desired concentration.
Vessels containing the active compound preparation of the desired concentration are populated with about 40 larvae of the red stomach worm (Haemonchus contortus).
After 5 days, the kill in % is determined 100% means that all of the larvae have been killed; 0% means that none of the larvae have been killed.

In the case of `Cn1nc(C(F)(F)C(F)(F)F)c(C(F)(F)F)c1-n1cc(-c2ccc(F)c(C(=O)NC3CC3)c2)cn1` [Ic-37], the “efficacy (kill in %)” value [1] is reported as 100%, the “efficacy (kill in %)” value [2] is reported as 100% and the “efficacy (kill in %)” value [3] is reported as 100%. For the same compound, the efficacy in % ([4]; application rate 100 g/ha) was 100%, the “efficacy (dead or moribund fleas)” value ([5]; application rate 1 μg/cm^2) was 100% and the “efficacy (dead or moribund fleas)” value ([5]; application rate 5 μg/cm^2) was 100%. The “efficacy (dead or moribund ticks)” value ([6]; application rate 1 μg/cm^2) was 100%, the “efficacy (dead or moribund ticks)” value ([6]; application rate 5 μg/cm^2) was 100% and the “efficacy (dead or moribund ticks)” value [7] was 100%.

`Cn1nc(C(F)(F)C(F)(F)F)c(C(F)(F)F)c1-n1cc(-c2ccc(Cl)c(C(=O)NC3CC3)c2)cn1` [Ic-1, 2-Chloro-N-cyclopropyl-5-[2′-methyl-5′-(pentafluoroethyl)-4′-(trifluoromethyl)-2′H-1,3′-bipyrazol-4-yl]benzamide] was tested, and the “efficacy (kill in %)” value [1] was 100%, the “efficacy (kill in %)” value [2] was 100% and the “efficacy (kill in %)” value [3] was 100%. The efficacy in % ([4]; application rate 500 g/ha) was 100%, the “nematicidal efficacy in % (formation of galls)” value [8] was 90% and the “efficacy (dead or moribund fleas)” value ([5]; application rate 1 μg/cm^2) was 100%. The “efficacy (dead or moribund fleas)” value ([5]; application rate 5 μg/cm^2) was 100%, the “efficacy (dead or moribund ticks)” value ([6]; application rate 1 μg/cm^2) was 100% and the “efficacy (dead or moribund ticks)” value ([6]; application rate 5 μg/cm^2) was 100%. For the same compound, the “efficacy (dead or moribund ticks)” value [7] was 100% and the “efficacy (kill in %)” value [9] was 80%.

`Cn1nc(C(F)(F)C(F)(F)F)c(C(F)(F)F)c1-n1ccc(-c2ccc(Cl)c(C(=O)NC3(C#N)CC3)c2)c1` [Ia-1] was tested, and the “efficacy (kill in %)” value [1] was 100%, the “efficacy (kill in %)” value [2] was 100% and the “efficacy (kill in %)” value [3] was 80%. For the same compound, the efficacy in % ([4]; application rate 100 g/ha) was 100%, the “efficacy (dead or moribund fleas)” value ([5]; application rate 1 μg/cm^2) was 100% and the “efficacy (dead or moribund fleas)” value ([5]; application rate 5 μg/cm^2) was 100%. For the same compound, the “efficacy (dead or moribund ticks)” value ([6]; application rate 1 μg/cm^2) was 100%, the “efficacy (dead or moribund ticks)” value ([6]; application rate 5 μg/cm^2) was 100% and the “efficacy (dead or moribund ticks)” value [7] was 100%.

For `Cn1nc(C(F)(F)C(F)(F)F)c(C(F)(F)F)c1-n1cc(-c2ccc(Cl)c(C(=O)NC3(C(N)=S)CC3)c2)cn1` [Ic-11], the “efficacy (kill in %)” value [1] was 100%, the “efficacy (kill in %)” value [2] was 100% and the “efficacy (kill in %)” value [3] was 100%. The efficacy in % ([4]; application rate 100 g/ha) was 100%, the “efficacy (dead or moribund fleas)” value ([5]; application rate 1 μg/cm^2) was 100% and the “efficacy (dead or moribund fleas)” value ([5]; application rate 5 μg/cm^2) was 100%. The “efficacy (dead or moribund ticks)” value ([6]; application rate 1 μg/cm^2) was 100%, the “efficacy (dead or moribund ticks)” value ([6]; application rate 5 μg/cm^2) was 100% and the “efficacy (dead or moribund ticks)” value [7] was 100%.

With `Cc1ncc(-c2cnn(-c3c(C(F)(F)F)c(C(F)(F)C(F)(F)F)nn3C)c2)cc1C(=O)NC1CC1` [Ic-84] the “efficacy (kill in %)” value [1] was 100%, the “efficacy (kill in %)” value [2] was 100% and the “efficacy (kill in %)” value [3] was 100%. For the same compound, the efficacy in % ([4]; application rate 500 g/ha) was 100%, the “efficacy (dead or moribund fleas)” value ([5]; application rate 1 μg/cm^2) was 100% and the “efficacy (dead or moribund fleas)” value ([5]; application rate 5 μg/cm^2) was 100%. The “efficacy (dead or moribund ticks)” value ([6]; application rate 1 μg/cm^2) was 100%, the “efficacy (dead or moribund ticks)” value ([6]; application rate 5 μg/cm^2) was 100% and the “efficacy (dead or moribund ticks)” value [7] was 100%.

For `Cn1nc(C(F)(F)C(F)(F)F)c(C(F)(F)F)c1-n1ccc(-c2ccc(Cl)c(C(=O)NC3CC3)c2)c1` [Ia-2], the “efficacy (kill in %)” value [1] was 100%, the “efficacy (kill in %)” value [2] was 100% and the “efficacy (kill in %)” value [3] was 90%. The efficacy in % ([4]; application rate 100 g/ha) was 100%, the “efficacy (dead or moribund fleas)” value ([5]; application rate 1 μg/cm^2) was 100% and the “efficacy (dead or moribund fleas)” value ([5]; application rate 5 μg/cm^2) was 100%. The “efficacy (dead or moribund ticks)” value ([6]; application rate 1 μg/cm^2) was 100%, the “efficacy (dead or moribund ticks)” value ([6]; application rate 5 μg/cm^2) was 100% and the “efficacy (dead or moribund ticks)” value [7] was 100%.

For `Cn1nc(C(F)(F)C(F)(F)F)c(C(F)(F)F)c1-n1cc(-c2ccc(Cl)c(C(=O)NC3(C#N)CC3)c2)cn1` [Ic-2], the “efficacy (kill in %)” value [1] was 100%, the “efficacy (kill in %)” value [2] was 100% and the “efficacy (kill in %)” value [3] was 100%. The efficacy in % ([4]; application rate 100 g/ha) was 100%, the “efficacy (dead or moribund fleas)” value ([5]; application rate 1 μg/cm^2) was 100% and the “efficacy (dead or moribund fleas)” value ([5]; application rate 5 μg/cm^2) was 100%. For the same compound, the “efficacy (dead or moribund ticks)” value ([6]; application rate 1 μg/cm^2) was 100%, the “efficacy (dead or moribund ticks)” value ([6]; application rate 5 μg/cm^2) was 100% and the “efficacy (dead or moribund ticks)” value [7] was 100%.

In the case of `Cn1nc(C(F)(F)C(F)(F)F)c(C(F)(F)F)c1-n1cc(-c2cc(Cl)c(Cl)c(C(=O)NC3CC3)c2)cn1` [Ic-94], the “efficacy (kill in %)” value [1] is reported as 100%, the “efficacy (kill in %)” value [2] is reported as 100% and the “efficacy (kill in %)” value [3] is reported as 100%. The efficacy in % ([4]; application rate 500 g/ha) was 100%, the “efficacy (dead or moribund fleas)” value ([5]; application rate 1 μg/cm^2) was 100% and the “efficacy (dead or moribund fleas)” value ([5]; application rate 5 μg/cm^2) was 100%. For the same compound, the “efficacy (dead or moribund ticks)” value ([6]; application rate 1 μg/cm^2) was 100%, the “efficacy (dead or moribund ticks)” value ([6]; application rate 5 μg/cm^2) was 100% and the “efficacy (dead or moribund ticks)” value [7] was 100%.

In the case of `CCn1nc(C(F)(F)C(F)(F)F)c(C(F)(F)F)c1-n1cc(-c2ccc(Cl)c(C(=O)NC3CC3)c2)cn1` [Ic-16], the “efficacy (kill in %)” value [1] is reported as 100%, the “efficacy (kill in %)” value [2] is reported as 100% and the “efficacy (kill in %)” value [3] is reported as 100%. The efficacy in % ([4]; application rate 100 g/ha) was 100%, the “efficacy (dead or moribund fleas)” value ([5]; application rate 1 μg/cm^2) was 100% and the “efficacy (dead or moribund fleas)” value ([5]; application rate 5 μg/cm^2) was 100%. For the same compound, the “efficacy (dead or moribund ticks)” value ([6]; application rate 1 μg/cm^2) was 100%, the “efficacy (dead or moribund ticks)” value ([6]; application rate 5 μg/cm^2) was 100% and the “efficacy (dead or moribund ticks)” value [7] was 100%. For the same compound, the “efficacy (kill in %)” value [9] was 80%.

For `Cn1nc(C(F)(F)C(F)(F)F)c(C(F)(F)F)c1-n1cnc(-c2ccc(Cl)c(C(=O)NC3CC3)c2)c1` [Ib-3], the “efficacy (kill in %)” value [1] was 100%, the “efficacy (kill in %)” value [2] was 100% and the “efficacy (kill in %)” value [3] was 100%. The efficacy in % ([4]; application rate 100 g/ha) was 100%, the “efficacy (dead or moribund fleas)” value ([5]; application rate 1 μg/cm^2) was 100% and the “efficacy (dead or moribund fleas)” value ([5]; application rate 5 μg/cm^2) was 100%. The “efficacy (dead or moribund ticks)” value ([6]; application rate 1 μg/cm^2) was 100%, the “efficacy (dead or moribund ticks)” value ([6]; application rate 5 μg/cm^2) was 80% and the “efficacy (dead or moribund ticks)” value [7] was 100% and 80%.
